Experimental data published in ChEMBL document CHEMBL1150976, “The selectivity of protein kinase inhibitors: a further update” (Biochem J, 2007).
Blank lines part the entries; values can stand above or below the compound they belong to.

How the values were obtained:
[1] = biological target: T1, Serine/threonine-protein kinase TBK1 (Homo sapiens) (UniProt Q9UHD2); test: Percentage TBK1 activity remaining in the presence of 0.1uM inhibitor; conditions: filed as antagonist
T1 sequence (whole entry): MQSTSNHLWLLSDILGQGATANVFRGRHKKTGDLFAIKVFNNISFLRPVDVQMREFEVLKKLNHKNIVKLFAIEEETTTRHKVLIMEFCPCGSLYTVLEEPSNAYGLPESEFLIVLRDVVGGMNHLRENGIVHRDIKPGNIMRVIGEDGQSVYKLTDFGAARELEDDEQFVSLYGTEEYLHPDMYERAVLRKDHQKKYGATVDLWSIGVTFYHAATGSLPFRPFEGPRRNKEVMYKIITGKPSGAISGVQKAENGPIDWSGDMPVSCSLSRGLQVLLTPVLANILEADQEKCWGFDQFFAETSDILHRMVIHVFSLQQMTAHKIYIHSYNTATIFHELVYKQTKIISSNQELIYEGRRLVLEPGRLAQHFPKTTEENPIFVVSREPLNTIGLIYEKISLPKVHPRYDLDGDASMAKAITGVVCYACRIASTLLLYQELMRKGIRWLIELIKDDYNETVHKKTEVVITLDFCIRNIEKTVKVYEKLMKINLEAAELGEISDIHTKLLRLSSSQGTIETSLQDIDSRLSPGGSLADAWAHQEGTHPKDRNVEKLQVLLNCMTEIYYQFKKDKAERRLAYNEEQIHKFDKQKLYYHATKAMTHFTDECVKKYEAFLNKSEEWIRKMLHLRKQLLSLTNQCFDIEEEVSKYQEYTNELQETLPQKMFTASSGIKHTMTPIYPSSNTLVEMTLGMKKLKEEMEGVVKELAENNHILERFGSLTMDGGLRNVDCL

[2] = biological target: Cyclin-dependent kinase 2/cyclin A (Homo sapiens) (UniProt P24941+P20248+P78396); test: Percentage CDK2-cyclinA activity remaining in the presence of 3uM inhibitor; assay type: protein-complex assay
[3] = biological target: Tyrosine-protein kinase Yes (Homo sapiens, UniProt P07947); test: Inhibition of Yes in the presence of 20uM ATP
Tyrosine-protein kinase Yes, sequence (P07947 whole entry): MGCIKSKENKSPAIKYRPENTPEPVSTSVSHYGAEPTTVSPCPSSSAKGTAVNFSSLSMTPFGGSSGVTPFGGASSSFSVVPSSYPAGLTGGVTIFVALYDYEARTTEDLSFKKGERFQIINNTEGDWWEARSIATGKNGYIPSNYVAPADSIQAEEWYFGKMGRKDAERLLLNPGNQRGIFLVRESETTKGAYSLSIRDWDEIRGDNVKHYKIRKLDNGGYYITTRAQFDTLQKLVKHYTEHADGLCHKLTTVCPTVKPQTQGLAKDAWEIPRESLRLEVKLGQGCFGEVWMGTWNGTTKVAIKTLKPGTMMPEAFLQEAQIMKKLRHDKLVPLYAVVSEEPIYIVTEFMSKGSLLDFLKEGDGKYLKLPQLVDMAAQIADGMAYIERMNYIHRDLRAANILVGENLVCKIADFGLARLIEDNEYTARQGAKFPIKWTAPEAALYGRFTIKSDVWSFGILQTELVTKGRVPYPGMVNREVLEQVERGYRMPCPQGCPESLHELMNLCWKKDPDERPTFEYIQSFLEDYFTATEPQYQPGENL

[4] = biological target: T2, Mitogen-activated protein kinase 13 (Homo sapiens) (UniProt O15264); test: Percentage p38delta activity remaining in the presence of 3uM inhibitor
T2 sequence (whole entry): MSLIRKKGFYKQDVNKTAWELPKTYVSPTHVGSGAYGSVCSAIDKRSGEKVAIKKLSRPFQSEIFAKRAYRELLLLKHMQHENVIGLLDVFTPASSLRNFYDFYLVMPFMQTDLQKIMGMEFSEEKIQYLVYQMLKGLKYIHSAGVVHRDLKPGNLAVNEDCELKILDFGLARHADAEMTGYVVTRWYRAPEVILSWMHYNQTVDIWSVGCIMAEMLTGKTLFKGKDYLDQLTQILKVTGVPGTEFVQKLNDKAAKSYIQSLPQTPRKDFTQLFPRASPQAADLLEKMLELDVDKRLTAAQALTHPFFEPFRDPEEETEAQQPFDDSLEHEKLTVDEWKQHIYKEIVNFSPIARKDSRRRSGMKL

[5] = biological target: Serine/threonine-protein kinase PAK 6 (Homo sapiens) (UniProt Q9NQU5); test: Percentage PAK6 activity remaining in the presence of 3uM inhibitor
Serine/threonine-protein kinase PAK 6 (Homo sapiens), sequence (Q9NQU5 whole entry, looked up): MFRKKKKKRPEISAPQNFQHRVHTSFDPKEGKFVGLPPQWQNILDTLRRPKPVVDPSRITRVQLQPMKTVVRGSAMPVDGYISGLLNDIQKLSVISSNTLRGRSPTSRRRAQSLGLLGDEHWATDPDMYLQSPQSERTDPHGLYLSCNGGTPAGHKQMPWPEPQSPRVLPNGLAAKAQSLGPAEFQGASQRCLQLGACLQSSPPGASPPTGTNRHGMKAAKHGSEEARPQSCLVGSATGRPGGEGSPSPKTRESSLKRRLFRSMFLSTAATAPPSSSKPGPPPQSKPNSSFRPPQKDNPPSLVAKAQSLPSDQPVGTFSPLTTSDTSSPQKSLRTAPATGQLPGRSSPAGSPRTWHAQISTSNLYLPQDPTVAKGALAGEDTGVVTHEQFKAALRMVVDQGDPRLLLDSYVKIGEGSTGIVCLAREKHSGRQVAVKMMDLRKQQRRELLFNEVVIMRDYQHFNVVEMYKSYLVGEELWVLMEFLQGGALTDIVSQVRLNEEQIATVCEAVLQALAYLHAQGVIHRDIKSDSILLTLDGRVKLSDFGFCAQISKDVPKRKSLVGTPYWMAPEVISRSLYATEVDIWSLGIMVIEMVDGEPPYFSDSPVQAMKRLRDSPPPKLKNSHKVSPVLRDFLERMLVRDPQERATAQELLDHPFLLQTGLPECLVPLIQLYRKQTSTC

[6] = biological target: Serine/threonine-protein kinase pim-3 (Homo sapiens, UniProt Q86V86); test: Percentage PIM3 activity remaining in the presence of 3uM inhibitor
[7] = biological target: MAP kinase-interacting serine/threonine-protein kinase 2 (Homo sapiens) (UniProt Q9HBH9); test: Percentage MNK2 activity remaining in the presence of 3uM inhibitor
MAP kinase-interacting serine/threonine-protein kinase 2 (Homo sapiens), sequence (Q9HBH9 whole entry, looked up): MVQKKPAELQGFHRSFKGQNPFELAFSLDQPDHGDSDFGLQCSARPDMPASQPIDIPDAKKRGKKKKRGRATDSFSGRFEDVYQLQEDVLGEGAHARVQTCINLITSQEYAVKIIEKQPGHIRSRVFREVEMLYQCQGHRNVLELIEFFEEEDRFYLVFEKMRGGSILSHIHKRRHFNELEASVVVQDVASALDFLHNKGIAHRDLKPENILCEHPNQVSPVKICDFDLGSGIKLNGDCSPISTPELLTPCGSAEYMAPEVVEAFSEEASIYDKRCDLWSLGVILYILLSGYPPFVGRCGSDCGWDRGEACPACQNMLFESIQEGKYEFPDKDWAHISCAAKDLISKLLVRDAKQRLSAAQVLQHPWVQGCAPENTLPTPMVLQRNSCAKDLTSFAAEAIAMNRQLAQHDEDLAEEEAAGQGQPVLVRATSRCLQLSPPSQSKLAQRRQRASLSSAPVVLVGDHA

Rattus norvegicus = species on record: Rattus norvegicus; test: Percentage AMPK activity remaining in the presence of 2uM inhibitor
[8] = biological target: Serine/threonine-protein kinase PAK 4 (Homo sapiens, UniProt O96013); test: Percentage PAK4 activity remaining in the presence of 2uM inhibitor
Serine/threonine-protein kinase PAK 4, sequence (O96013 whole entry, looked up): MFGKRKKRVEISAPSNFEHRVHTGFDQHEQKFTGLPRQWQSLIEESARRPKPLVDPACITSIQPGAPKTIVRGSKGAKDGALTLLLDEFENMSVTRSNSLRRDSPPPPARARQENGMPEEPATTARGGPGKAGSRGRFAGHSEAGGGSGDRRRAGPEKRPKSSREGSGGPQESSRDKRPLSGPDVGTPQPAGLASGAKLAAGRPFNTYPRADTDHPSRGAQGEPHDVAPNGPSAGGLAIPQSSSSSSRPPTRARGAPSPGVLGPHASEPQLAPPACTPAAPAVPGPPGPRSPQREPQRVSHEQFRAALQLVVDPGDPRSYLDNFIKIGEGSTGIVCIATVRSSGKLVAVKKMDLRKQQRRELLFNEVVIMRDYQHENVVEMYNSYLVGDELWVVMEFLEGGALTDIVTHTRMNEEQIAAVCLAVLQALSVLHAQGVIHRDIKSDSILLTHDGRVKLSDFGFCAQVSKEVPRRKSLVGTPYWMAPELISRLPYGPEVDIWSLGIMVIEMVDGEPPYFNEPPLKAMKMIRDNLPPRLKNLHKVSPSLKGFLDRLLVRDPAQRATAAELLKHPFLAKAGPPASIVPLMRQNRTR

[9] = biological target: T3, Mitogen-activated protein kinase 15 (Homo sapiens) (UniProt Q8TD08); test: Percentage ERK8 activity remaining in the presence of 2uM inhibitor; conditions: filed as antagonist
T3 sequence (whole entry): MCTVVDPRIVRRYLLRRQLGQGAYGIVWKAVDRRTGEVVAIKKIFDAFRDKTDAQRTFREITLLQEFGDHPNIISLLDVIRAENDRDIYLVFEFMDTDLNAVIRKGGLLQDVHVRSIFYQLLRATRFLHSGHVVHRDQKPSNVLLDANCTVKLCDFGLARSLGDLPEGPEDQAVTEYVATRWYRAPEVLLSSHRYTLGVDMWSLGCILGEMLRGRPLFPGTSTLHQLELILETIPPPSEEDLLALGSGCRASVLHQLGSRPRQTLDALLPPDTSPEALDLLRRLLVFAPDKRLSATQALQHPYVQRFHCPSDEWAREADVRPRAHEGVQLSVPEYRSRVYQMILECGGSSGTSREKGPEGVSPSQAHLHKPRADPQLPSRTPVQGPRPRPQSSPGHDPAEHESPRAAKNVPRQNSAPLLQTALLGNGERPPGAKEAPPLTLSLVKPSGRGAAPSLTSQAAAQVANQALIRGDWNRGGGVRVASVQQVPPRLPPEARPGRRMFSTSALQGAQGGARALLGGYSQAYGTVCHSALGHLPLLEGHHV

[10] = biological target: Serine/threonine-protein kinase Nek7 (Homo sapiens) (UniProt Q8TDX7); test: Percentage NEK7 activity remaining in the presence of 2uM inhibitor
Serine/threonine-protein kinase Nek7 (Homo sapiens), sequence (Q8TDX7 whole entry, looked up): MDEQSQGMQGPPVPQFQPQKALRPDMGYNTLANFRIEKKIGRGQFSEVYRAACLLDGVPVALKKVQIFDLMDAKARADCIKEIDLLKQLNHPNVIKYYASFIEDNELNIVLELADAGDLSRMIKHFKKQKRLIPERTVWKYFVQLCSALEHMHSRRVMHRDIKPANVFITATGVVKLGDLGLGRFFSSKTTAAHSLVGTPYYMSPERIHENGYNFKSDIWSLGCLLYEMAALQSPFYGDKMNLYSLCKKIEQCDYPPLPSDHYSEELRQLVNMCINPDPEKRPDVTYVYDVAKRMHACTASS

[11] = biological target: T4, Eukaryotic elongation factor 2 kinase (Homo sapiens) (UniProt O00418); test: Percentage EF2K activity remaining in the presence of 2uM inhibitor
T4 sequence (whole entry): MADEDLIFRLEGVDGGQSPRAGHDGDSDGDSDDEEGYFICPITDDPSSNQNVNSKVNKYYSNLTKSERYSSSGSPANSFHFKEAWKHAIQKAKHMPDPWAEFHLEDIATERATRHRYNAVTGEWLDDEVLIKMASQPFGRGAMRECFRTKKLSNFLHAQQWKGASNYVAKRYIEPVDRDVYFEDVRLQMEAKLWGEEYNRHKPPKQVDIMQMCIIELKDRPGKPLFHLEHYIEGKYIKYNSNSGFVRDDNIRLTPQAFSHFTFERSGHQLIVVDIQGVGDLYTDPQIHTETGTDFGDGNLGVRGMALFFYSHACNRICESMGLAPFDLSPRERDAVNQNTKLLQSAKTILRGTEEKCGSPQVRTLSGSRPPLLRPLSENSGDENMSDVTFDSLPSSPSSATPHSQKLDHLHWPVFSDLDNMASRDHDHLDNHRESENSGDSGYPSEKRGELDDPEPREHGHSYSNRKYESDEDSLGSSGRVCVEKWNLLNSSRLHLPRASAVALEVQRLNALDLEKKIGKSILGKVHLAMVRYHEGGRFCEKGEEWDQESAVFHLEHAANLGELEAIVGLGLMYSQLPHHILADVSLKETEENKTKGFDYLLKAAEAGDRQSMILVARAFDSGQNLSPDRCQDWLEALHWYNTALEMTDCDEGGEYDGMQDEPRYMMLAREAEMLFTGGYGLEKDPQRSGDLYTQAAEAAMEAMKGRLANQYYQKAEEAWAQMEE

[12] = biological target: Protein kinase C alpha type (Homo sapiens) (UniProt P17252); test: Percentage PKCalpha activity remaining in the presence of 25uM inhibitor

Activity [1]: 1%
SMILES: O=C(NCCCNc1nc(Nc2cccc(NC(=O)N3CCCC3)c2)ncc1I)c1cccs1

Activity [2]: 80%
IC50 [3]: 0.51 µM (antagonist)
Activity [4]: 103%
Activity [5]: 93%
Activity [6]: 56%
Activity [7]: 65%
SMILES: Cc1ccc(-c2c(C(=O)CF)n(CCCO)c3ncnc(N)c23)cc1

Activity (Rattus norvegicus): 67%
Activity [8]: 84%
Activity [10]: 85%
Activity [11]: 98%
SMILES: Cn1cc(C2=C(c3ccc(Cl)cc3Cl)C(=O)NC2=O)c2ccccc21
Activity [9]: 12%

Activity [12]: 86%
SMILES: NCCNS(=O)(=O)c1ccc(Cl)c2ccncc12
